Assay results: patent US8197864B2, “Preparation, process and a regenerative method and technique for prevention, treatment and glycemic control of diabetes mellitus” (Arjuna Natural Extracts, priority 2004, dated 2012)

Test system: normal rats
Assay: Hypoglycemic activity of fractions on blood sugar level in fasted normal rats
Format: in vivo, Sprague dawley rats
Details: glybenclamide 1 mg/kg, metformin 150 mg/kg; for blood sugar level, 1 hr: 1 hr after single oral dose: fractions 100 mg/kg; for blood sugar level, 3 hr: 3 hr after single oral dose: fractions 100 mg/kg; for blood sugar level, 5 hr: 5 hr after single oral dose: fractions 100 mg/kg; for blood sugar level, Fasting: fasting value before administration, single oral dose: fractions 100 mg/kg; for effect on blood glucose level (in words): single oral dose after 4 hours of fasting: fractions 100 mg/kg
Procedure: Activity of different extracts were tested using Sprague dawley rats of either sex aged 3 months weighing 180-200 g. After 3-4 hrs of fasting the rats were divided into 7 groups of 6 in each, one group kept as control and 4 groups were given different fractions (Fraction I, Fraction III, Fraction IV and Fraction V) of extract in the dose of 100 mg/kg. Sixth and seventh groups were given standard drugs glybenclamide (1 mg/kg) and metformin (150 mg/kg) respectively.
(See Table II, graph I) The extract/drug was administered orally (single dose) after 4 hours of fasting. […] In FIG. 2, the graph provides blood glucose level in normal rats in mg/dl measured over a duration of 5 hours. The normal rats were fed with different fractions of the extract after four hours of fasting.

| SMILES | blood sugar level, 1 hr | blood sugar level, 3 hr | blood sugar level, 5 hr | blood sugar level, Fasting | effect on blood glucose level (in words) |
| --- | --- | --- | --- | --- | --- |
| COc1ccc(Cl)cc1C(=O)NCCc1ccc(S(=O)(=O)NC(=O)NC2CCCCC2)cc1 [Glybenclamide, glybenclamide] | *58.8 ± 9.8 mg/dl | *43.3 ± 8.2 mg/dl | *43.2 ± 5.8 mg/dl | 72.6 ± 8.6 mg/dL | significant (p<0.05) decrease in blood glucose level in the first hour |
| CN(C)C(=N)N=C(N)N [Metformin, metformin] | 70.6 ± 3.0 mg/dL | 68.3 ± 2.6 mg/dL | *61.5 ± 3.0 mg/dl | 76.6 ± 4.1 mg/dL | significant (p<0.05) decrease in blood glucose level in the fifth hour |
